{
  "source": "patent US6825217B2",
  "about": "“Carbinols for the treatment of neuropathic dysfunction” (Endo Pharmaceuticals, Inc., priority 2001, dated 2004)",
  "key": {"[1]": {"test": "Safety pharmacology, monkey", "format": "in vivo"}, "[2]": {"test": "Formalin model", "format": "in vivo", "conditions": "rat", "excerpt": "Formalin induces inflammatory stimulation of peripheral nerves that results in sensitization of CNS nociceptive transmission pathways. There are two phases of formalin-induced nociception: phase I—an acute nociceptive component; and phase II—a chronic nociceptive component characterized by hyperalgesia.\nOn the morning of formalin testing, a small metal band (0.5 g) was loosely placed around the right hind paw. The rat was placed in a cylindrical Plexiglas chamber for adaptation for a minimum of 30 minutes. Compound A, venlafaxine or a saline control was administered into the dorsal surface of the right hindpaw of the rat. The animal was then placed into the chamber of the automated formalin apparatus where movement of the formalin-injected paw was monitored and the number of paw flinches tallied by minute over the next sixty minutes. Upon completion of the test the animal was removed and euthanized."}, "[3]": {"test": "Safety pharmacology, mouse", "format": "in vivo"}, "[4]": {"test": "Mouse antiphenylquinone writhing (PQW) test", "format": "in vivo", "method": "The anti-phenylquinone writhing (PQW) test modified from the methods of Siegmund et al. (Proc. Soc. Exp. Biol. Med. 95: 729-731, 1957) and Blumberg et al. (Proc. Exp. Biol. Med. 118: 763-767, 1965) was used to assess the relief from the simulated symptoms of neuropathic pain in mice. Male CF1 mice (Charles River Breeding Laboratories, Wilmington, Mass.), fasted for 16-22 hours and weighing 18-23 g, were injected with randomized and coded doses of test compounds, then challenged with 1.25 mg/kg i.p. phenyl-p-benzoquinone (phenylquinone) 5 minutes prior to the specified observation time. The phenylquinone solution (0.1 mg/ml in 5% aqueous ethanol) was prepared daily and stored in foil-wrapped amber bottles to limit degradation. Mice were observed 10 minutes for the presence or absence of the characteristic abdominal constriction and stretching response beginning 30 minutes after injection of the test compound. Activity was calculated as the percentage of mice failing to respond to the phenylquinone challenge dose. […] Median effective doses (ED50's) and 95% confidence limits were determined numerically by the methods of Thompson (Bacteriological Rev. 11: 115-145, 1947), and Litchfield and Wilcoxon (J. Pharmacol. Exp. Ther. 96: 99-113, 1949)."}, "[5]": {"test": "Dog tooth pulp", "format": "in vivo", "conditions": "unmarked entry of animal model table"}, "[6]": {"biological_target": "T1, delta receptor sites in the brain (Homo sapiens, UniProt P41143)", "T1 construct": "mu, kappa, delta or sigma receptor sites in the brain; from tissue", "T1 sequence (P41143 whole entry)": "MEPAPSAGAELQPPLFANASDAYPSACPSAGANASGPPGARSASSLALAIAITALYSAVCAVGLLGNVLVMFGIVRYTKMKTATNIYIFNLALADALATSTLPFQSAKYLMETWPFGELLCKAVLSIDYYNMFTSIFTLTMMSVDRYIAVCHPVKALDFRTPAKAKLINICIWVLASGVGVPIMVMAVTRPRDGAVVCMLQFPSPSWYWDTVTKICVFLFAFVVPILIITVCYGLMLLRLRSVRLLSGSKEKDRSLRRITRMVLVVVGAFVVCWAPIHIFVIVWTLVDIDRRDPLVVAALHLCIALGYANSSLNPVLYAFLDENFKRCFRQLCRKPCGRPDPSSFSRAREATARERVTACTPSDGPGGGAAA", "test": "Activity at delta receptor sites in the brain", "format": "binding"}, "[7]": {"test": "Mouse Tail-Flick", "format": "in vivo", "parameters": "key to activity in mouse Tail flick model: *: Inactive; Φ: Weakly active"}, "[8]": {"test": "Safety pharmacology, rat", "format": "in vivo"}, "[9]": {"biological_target": "T2, rat synaptosomal 5-HT Reuptake (Rattus norvegicus, UniProt P31652)", "T2 construct": "rat synaptosomal 5-HT and NE Reuptake; from tissue; host or cells: rat synaptosomes (rat brain preparations)", "T2 sequence (P31652 whole entry)": "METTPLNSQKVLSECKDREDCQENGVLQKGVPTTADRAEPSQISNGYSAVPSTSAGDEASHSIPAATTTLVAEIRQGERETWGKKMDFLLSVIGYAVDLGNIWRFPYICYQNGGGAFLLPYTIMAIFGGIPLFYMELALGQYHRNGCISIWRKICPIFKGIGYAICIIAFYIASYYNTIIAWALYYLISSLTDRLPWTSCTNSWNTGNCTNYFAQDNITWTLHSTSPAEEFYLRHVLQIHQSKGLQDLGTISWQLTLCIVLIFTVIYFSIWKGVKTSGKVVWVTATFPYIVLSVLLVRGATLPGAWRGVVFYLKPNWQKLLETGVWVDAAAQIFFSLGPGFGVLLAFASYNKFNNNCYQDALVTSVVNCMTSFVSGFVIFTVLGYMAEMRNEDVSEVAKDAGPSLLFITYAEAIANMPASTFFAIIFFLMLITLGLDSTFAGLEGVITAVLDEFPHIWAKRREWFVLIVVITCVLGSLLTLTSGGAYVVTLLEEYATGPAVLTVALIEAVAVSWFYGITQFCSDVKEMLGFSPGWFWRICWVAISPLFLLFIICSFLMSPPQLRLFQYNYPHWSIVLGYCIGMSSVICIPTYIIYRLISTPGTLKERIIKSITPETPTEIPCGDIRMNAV", "test": "Serotonin reuptake assay (rat synaptosomal 5-HT uptake)", "format": "biochemical"}, "[10]": {"conditions": "all administered doses, versus saline control"}},
  "data": [
    {"smiles": "CN1CCC(c2ccsc2)(C(C)(C)O)CC1", "note": "[Compound A, 4-(3-thienyl)-α,α,1-trimethyl-4-piperidinemethanol]", "values": [
      {"measurement": "MTD", "setting": "[1]; in vivo, other: iv/sc", "value": "16 to 32", "unit": "mg/kg"},
      {"measurement": "LD", "setting": "[1]; iv/sc", "value": "LD = 1.6-32 mg/kg"},
      {"measurement": "physical dep", "setting": "[1]; iv/sc", "value": "non-opioid"},
      {"measurement": "respiratory depression, multiple of effective dose (mg/kg)", "setting": "[1]; iv/sc", "value": "16/32"},
      {"measurement": "Chronic dosing: effect at 0.4", "setting": "[1]; iv/sc, 0.4, at 7 days", "value": "0.4 = retching"},
      {"measurement": "Chronic dosing: effect at 1.6", "setting": "[1]; iv/sc, 1.6, at 11 days", "value": "1.6 = death"},
      {"measurement": "Chronic dosing: effect at 1.6", "setting": "[1]; iv/sc, 1.6, at 20 days", "value": "1.6 = death"},
      {"measurement": "effect upon hyperalgesia induced by injection of formalin into the paw", "setting": "[2]", "value": "reliable dose dependent effect"},
      {"measurement": "formalin test, paw flinches, phase I", "setting": "[2]; all administered doses (200/100/50 mg per kg), versus saline control", "value": "statistically significant effects"},
      {"measurement": "formalin test, paw flinches, phase II", "setting": "[2]; [10]", "value": "statistically significant effects"},
      {"measurement": "formalin test, paw flinches, phase IIA", "setting": "[2]; [10]", "value": "statistically significant effects"},
      {"measurement": "formalin test, paw flinches, Phase IIB", "setting": "[2]; versus saline control", "value": "No statistical significance"},
      {"measurement": "LD", "setting": "[3]; po", "value": "LD = 900 mg/kg-po"},
      {"measurement": "cross-tolerance to morphine, multiple of effective dose", "setting": "[3]; po/iv", "value": "1-50 X"},
      {"measurement": "inhibition of GI motility, multiple of effective dose", "setting": "[3]; po/iv", "value": 1, "unit": "X"},
      {"measurement": "mydriasis, multiple of effective dose", "setting": "[3]; po/iv", "value": 1, "unit": "X"},
      {"measurement": "ED50", "setting": "[4]; Mus musculus", "value": 18, "unit": "mg/kg"},
      {"measurement": "activity in mouse PQW model", "setting": "[4]; mouse, unmarked entry of animal model table", "value": "showed activity"},
      {"measurement": "activity in dog Tooth pulp model", "setting": "[5]", "value": "showed activity"},
      {"measurement": "activity at delta receptor sites", "setting": "[6]", "value": "does not show significant activity"},
      {"measurement": "ED50", "setting": "[7]; Mus musculus, read-out: Mouse Tail-Flick ED50", "value": 117, "unit": "mg/kg"},
      {"measurement": "activity in mouse Tail flick model", "setting": "[7]; mouse", "value": "Tail flick^Φ"},
      {"measurement": "LD", "setting": "[8]; po", "value": "LD = 400 mg/kg-po"},
      {"measurement": "anorexia, multiple of effective dose (mg/kg)", "setting": "[8]; po", "value": "10,100,300 mg/kg"},
      {"measurement": "physical dep", "setting": "[8]; po", "value": "non-opioid"},
      {"measurement": "respiratory acidosis, exophthalmia, multiple of effective dose", "setting": "[8]; po", "value": "1-50 X"},
      {"measurement": "LD", "setting": "[8]; sc", "value": "LD = 270 mg/kg-sc"},
      {"measurement": "IC50", "setting": "[9]", "value": 120, "unit": "nM"},
      {"measurement": "uptake of serotonin", "setting": "[9]; rat brain preparations", "value": "inhibits uptake"}
    ]}
  ]
}
